From patent US9125913B2, “Bcl-2-selective apoptosis-inducing agents for the treatment of cancer and immune diseases” (AbbVie Inc., priority 2008, dated 2015) come the findings set out here.

The assay concerns GST-Bcl-2. Description: TR-FRET binding assay, Bcl-2. The note with it: TR-FRET Ki values. The method, then: Tb-anti-GST antibody was purchased from Invitrogen (Catalog No. PV4216).
Representative compounds were serially diluted in dimethyl sulfoxide (DMSO) starting at 50 μM (2× starting concentration; 10% DMSO) and 10 μL were transferred into a 384-well plate.
The samples were then mixed on a shaker for 1 minute and incubated for an additional 3 hours at room temperature. For each assay, the probe/antibody and protein/probe/antibody were included on each assay plate as negative and positive controls, respectively. Fluorescence was measured on the Envision (Perkin Elmer) using a 340/35 nm excitation filter and 520/525 (F-Bak peptide) and 495/510 nm (Tb-labeled anti-Histidine antibody) emission filters.
The inhibition constant (Ki) is the dissociation constant of an enzyme-inhibitor complex or a protein/small molecule complex, wherein the small molecule is inhibiting binding of one protein to another protein or peptide. […] Inhibition constants were determined using Wang's equation (Wang Z-X., An Exact Mathematical Expression For Describing Competitive Binding Of Two Different Ligands To A Protein Molecule. FEBS Lett. 1995, 360:111-4).
As to `CC1(C)CCC(CN2CCN(c3ccc(C(=O)NS(=O)(=O)c4ccc(NCCCN5CCOCC5)c(S(=O)(=O)C(F)(F)F)c4)c(Oc4ccc5[nH]ccc5c4)c3)CC2)=C(c2ccc(Cl)cc2)C1` [EXAMPLE 348, 4-(4-{[2-(4-chlorophenyl)-4,4-dimethylcyclohex-1-en-1-yl]methyl}piperazin-1-yl)-2-(1H-indol-5-yloxy)-N-({4-[(3-morpholin-4-ylpropyl)amino]-3-[(trifluoromethyl)sulfonyl]phenyl}sulfonyl)benzamide], the “Binding selectivity ratio (Bcl-XL Ki/Bcl-2 Ki)” value (“Binding selectivity ratio” below) amounted to 97.1.
Next, `CC1(C)CCC(CN2CCN(c3ccc(C(=O)NS(=O)(=O)c4ccc(NC5CCN(C6CCOCC6)CC5)c([N+](=O)[O-])c4)c(Oc4cccc5[nH]cnc45)c3)CC2)=C(c2ccc(Cl)cc2)C1` [EXAMPLE 417, 2-(1H-benzimidazol-4-yloxy)-4-(4-{[2-(4-chlorophenyl)-4,4-dimethylcyclohex-1-en-1-yl]methyl}piperazin-1-yl)-N-({3-nitro-4-[(1-tetrahydro-2H-pyran-4-ylpiperidin-4-yl)amino]phenyl}sulfonyl)benzamide]: 87.06; `CC1(C)CCC(CN2CCN(c3ccc(C(=O)NS(=O)(=O)c4ccc(NC5(CO)CCOCC5)c([N+](=O)[O-])c4)c(Oc4cccc5[nH]ccc45)c3)CC2)=C(c2ccc(Cl)cc2)C1` [EXAMPLE 241, 4-(4-{[2-(4-chlorophenyl)-4,4-dimethylcyclohex-1-en-1-yl]methyl}piperazin-1-yl)-N-[(4-{[4-(hydroxymethyl)tetrahydro-2H-pyran-4-yl]amino}-3-nitrophenyl)sulfonyl]-2-(1H-indol-4-yloxy)benzamide]: over 108.3; `O=C(NS(=O)(=O)c1ccc(NCCCN2CCOCC2)cc1)c1ccc(N2CCN(Cc3ccccc3-c3ccc(Cl)cc3)CC2)cc1Oc1ccccc1` [Example 78, 4-{4-[(4′-chloro-1,1′-biphenyl-2-yl)methyl]piperazin-1-yl}-N-({4-[(3-morpholin-4-ylpropyl)amino]phenyl}sulfonyl)-2-phenoxybenzamide]: over 5.9.
Next, `CC1(C)CCC(CN2CCN(c3ccc(C(=O)NS(=O)(=O)c4ccc(NC5CCN(C6CCOCC6)CC5)c([N+](=O)[O-])c4)c(Nc4cccnc4)c3)CC2)=C(c2ccc(Cl)cc2)C1` [EXAMPLE 397, 4-(4-{[2-(4-chlorophenyl)-4,4-dimethylcyclohex-1-en-1-yl]methyl}piperazin-1-yl)-N-({3-nitro-4-[(1-tetrahydro-2H-pyran-4-ylpiperidin-4-yl)amino]phenyl}sulfonyl)-2-(pyridin-3-ylamino)benzamide]: over 28730.6285913286.
As for `CC1(C)CCC(CN2CCN(c3ccc(C(=O)NS(=O)(=O)c4ccc(NCC5CN(C6CC6)CCO5)c([N+](=O)[O-])c4)c(Oc4cccc5[nH]cnc45)c3)CC2)=C(c2ccc(Cl)cc2)C1` (stereo not drawn) [EXAMPLE 432, 2-(1H-benzimidazol-4-yloxy)-4-(4-{[2-(4-chlorophenyl)-4,4-dimethylcyclohex-1-en-1-yl]methyl}piperazin-1-yl)-N-[(4-{[(4-cyclopropylmorpholin-2-yl)methyl]amino}-3-nitrophenyl)sulfonyl]benzamide], the “Binding selectivity ratio” value was determined as 408.8.
To `CC1(C)CCC(CN2CCN(c3ccc(C(=O)NS(=O)(=O)c4cnc(OCC5CCOCC5)c(Cl)c4)c(Oc4cccc5[nH]ccc45)c3)CC2)=C(c2ccc(Cl)cc2)C1` [EXAMPLE 387, 4-(4-{[2-(4-chlorophenyl)-4,4-dimethylcyclohex-1-en-1-yl]methyl}piperazin-1-yl)-N-{[5-chloro-6-(tetrahydro-2H-pyran-4-ylmethoxy)pyridin-3-yl]sulfonyl}-2-(1H-indol-4-yloxy)benzamide] belongs 1723.4; to `CC1(C)CCC(CN2CCN(c3ccc(C(=O)NS(=O)(=O)c4ccc(OCC5COCCO5)c([N+](=O)[O-])c4)c(Oc4ccc5[nH]ccc5c4)c3)CC2)=C(c2ccc(Cl)cc2)C1` (stereo not drawn) [EXAMPLE 297, 4-(4-{[2-(4-chlorophenyl)-4,4-dimethylcyclohex-1-en-1-yl]methyl}piperazin-1-yl)-N-{[4-(1,4-dioxan-2-ylmethoxy)-3-nitrophenyl]sulfonyl}-2-(1H-indol-5-yloxy)benzamide], 2209.5.
Next, `CC1(C)CCC(CN2CCN(c3ccc(C(=O)NS(=O)(=O)c4cnc(OCC5CCOCC5)c(Br)c4)c(Oc4cccc5[nH]ccc45)c3)CC2)=C(c2ccc(Cl)cc2)C1` [EXAMPLE 364, N-{[5-bromo-6-(tetrahydro-2H-pyran-4-ylmethoxy)pyridin-3-yl]sulfonyl}-4-(4-{[2-(4-chlorophenyl)-4,4-dimethylcyclohex-1-en-1-yl]methyl}piperazin-1-yl)-2-(1H-indol-4-yloxy)benzamide]: 12197.3; `O=C(NS(=O)(=O)c1ccc(NCC2CCOCC2)c([N+](=O)[O-])c1)c1ccc(N2CCN(Cc3cc(OCCCN4CCCCC4)ccc3-c3ccc(Cl)cc3)CC2)cc1Oc1ccccc1` [Example 114, 4-(4-{[4′-chloro-4-(3-piperidin-1-ylpropoxy)-1,1′-biphenyl-2-yl]methyl}piperazin-1-yl)-N-({3-nitro-4-[(tetrahydro-2H-pyran-4-ylmethyl)amino]phenyl}sulfonyl)-2-phenoxybenzamide]: 149.2; `CC1(C)CCC(CN2CCN(c3ccc(C(=O)NS(=O)(=O)c4ccc(NC5CCC(F)(F)CC5)c([N+](=O)[O-])c4)c(Oc4ccc5[nH]ccc5c4)c3)CC2)=C(c2ccc(Cl)cc2)C1` [EXAMPLE 305, 4-(4-{[2-(4-chlorophenyl)-4,4-dimethylcyclohex-1-en-1-yl]methyl}piperazin-1-yl)-N-({4-[(4,4-difluorocyclohexyl)amino]-3-nitrophenyl}sulfonyl)-2-(1H-indol-5-yloxy)benzamide]: over 179.2.
Next, `CC(c1ccccc1-c1ccc(Cl)cc1)N1CCN(c2ccc(C(=O)NS(=O)(=O)c3ccc(NN4CCN(C)CC4)c([N+](=O)[O-])c3)c(Oc3cccc4[nH]ccc34)c2)CC1` (stereo not drawn) [EXAMPLE 217, 4-{4-[1-(4′-chloro-1,1′-biphenyl-2-yl)ethyl]piperazin-1-yl}-2-(1H-indol-4-yloxy)-N-({4-[(4-methylpiperazin-1-yl)amino]-3-nitrophenyl}sulfonyl)benzamide]: 171.1; `CC1(C)CCC(CN2CCN(c3ccc(C(=O)NS(=O)(=O)c4cnc(OCC5CCOCC5)c(C#N)c4)c(Oc4ccc5[nH]ccc5c4)c3)CC2)=C(c2ccc(Cl)cc2)C1` [EXAMPLE 333, 4-(4-{[2-(4-chlorophenyl)-4,4-dimethylcyclohex-1-en-1-yl]methyl}piperazin-1-yl)-N-{[5-cyano-6-(tetrahydro-2H-pyran-4-ylmethoxy)pyridin-3-yl]sulfonyl}-2-(1H-indol-5-yloxy)benzamide]: over 7415.7; `COC1CCC(Nc2ccc(S(=O)(=O)NC(=O)c3ccc(N4CCN(CC5=C(c6ccc(Cl)cc6)CC(C)(C)CC5)CC4)cc3Oc3ccc4[nH]ccc4c3)cc2[N+](=O)[O-])CC1` (stereo not drawn) [EXAMPLE 265, 4-(4-{[2-(4-chlorophenyl)-4,4-dimethylcyclohex-1-en-1-yl]methyl}piperazin-1-yl)-2-(1H-indol-5-yloxy)-N-({4-[(4-methoxycyclohexyl)amino]-3-nitrophenyl}sulfonyl)benzamide]: over 388.8.
As for `Cn1ncc(-c2ccc(Cl)cc2)c1CN1CCN(c2ccc(C(=O)NS(=O)(=O)c3ccc(NCC4CCOCC4)c([N+](=O)[O-])c3)c(Oc3ccc4[nH]ccc4c3)c2)CC1` [EXAMPLE 285, 4-(4-{[4-(4-chlorophenyl)-1-methyl-1H-pyrazol-5-yl]methyl}piperazin-1-yl)-2-(1H-indol-5-yloxy)-N-({3-nitro-4-[(tetrahydro-2H-pyran-4-ylmethyl)amino]phenyl}sulfonyl)benzamide], the “Binding selectivity ratio” value was over 94.4.
To `CC(=O)N1CCC(Nc2ccc(S(=O)(=O)NC(=O)c3ccc(N4CCN(CC5=C(c6ccc(Cl)cc6)CC(C)(C)CC5)CC4)cc3Oc3ccc4[nH]ccc4c3)cc2[N+](=O)[O-])CC1` [EXAMPLE 334, N-({4-[(1-acetylpiperidin-4-yl)amino]-3-nitrophenyl}sulfonyl)-4-(4-{[2-(4-chlorophenyl)-4,4-dimethylcyclohex-1-en-1-yl]methyl}piperazin-1-yl)-2-(1H-indol-5-yloxy)benzamide] belongs over 3697.5; to `CN(C)CCCNc1ccc(S(=O)(=O)NC(=O)c2ccc(N3CCN(Cc4ccccc4-c4ccc(Cl)cc4)CC3)cc2Oc2ccccc2)cc1C#N` [Example 90, 4-{4-[(4′-chloro-1,1′-biphenyl-2-yl)methyl]piperazin-1-yl}-N-[(3-cyano-4-{[3-(dimethylamino)propyl]amino}phenyl)sulfonyl]-2-phenoxybenzamide], 133; to `CN(C)CCCNc1ccc(S(=O)(=O)NC(=O)c2ccc(N3CCN(Cc4ccccc4-c4ccc(Cl)cc4)CC3)cc2Oc2ccc3[nH]ccc3c2)cc1S(=O)(=O)C(F)(F)F` [Example 64, 4-{4-[(4′-chloro-1,1′-biphenyl-2-yl)methyl]piperazin-1-yl}-N-({4-{[3-(dimethylamino)propyl]amino}-3-[(trifluoromethyl)sulfonyl]phenyl}sulfonyl)-2-(1H-indol-5-yloxy)benzamide], 77.1.
